Test results from patent US8889639B2, “Compositions and methods for modulating PGC-1β to treat lipid-related diseases and disorders” (Dana-Farber Cancer Institute, Inc., priority 2004, dated 2014).

What was measured:
PGC-1α = assay: Free fatty acid treatment of primary hepatocytes, PGC-1α mRNA by real-time PCR; type: cell-based, mouse; conditions: 400 μM fatty acid, 4 hours
Description: FIG. 1D depicts the regulation of PGC-1β expression by free fatty acids in isolated hepatocytes. Primary hepatocytes were treated with 400 μM of various fatty acids for 4 hours. Total RNA was isolated and analyzed by realtime PCR using primers specific for PGC-1β (filled box) and PGC-1β (open box); *: p<0.01.
Total RNA was isolated from liver or cultured hepatocytes using Trizol reagent (Invitrogen™). […] Relative abundance of mRNA was calculated after normalization to 18S ribosomal RNA.

PGC-1β = assay: Free fatty acid treatment of primary hepatocytes, PGC-1β mRNA by real-time PCR; type: cell-based, mouse; conditions: 400 μM fatty acid, 4 hours
Text: FIGS. 1A-D depict the induction of PGC-1β expression by dietary intake of saturated fats. In particular, FIG. 1A depicts a cluster analysis of liver gene expression in response to high-fat feeding. FIG. 1A exemplifies genes involved in hepatic lipogenesis that are induced more than 1.8-fold in response to high-fat feeding. A representative probe set was used in generating the tree in the event multiple probe sets were available for a single gene. SREBP1c and PGC-1β were included in this lipogenic cluster. FIG. 1B depicts the real-time PCR analysis of total liver RNA from mice fed a high-fat diet for 1 day (hatched box) or 2 days (filled box). Relative mRNA abundance was calculated by normalization to the control chow values (open box); N=4;*: p<0.01. FIG. 1C depicts the real-time PCR analysis of total liver RNA from mice fed a control diet containing 0.07% cholesterol (open box) or a diet containing 2% cholesterol for 1 day (hatched box) or 2 days (filled box). Values were normalized to those from mice fed the control diet; N=4;*: p<0.02. FIG. 1D depicts the regulation of PGC-1β expression by free fatty acids in isolated hepatocytes. Primary hepatocytes were treated with 400 μM of various fatty acids for 4 hours. Total RNA was isolated and analyzed by realtime PCR using primers specific for […] and PGC-1β (open box); *: p<0.01.
Primary hepatocytes were isolated following perfusion of whole liver first with perfusion buffer (Hank's Balanced Saline, HBSS) and then a collagenase solution (HBSS with 1% BSA and 0.05% collagenase). Dispersed cells were resuspended and seeded onto collagen-coated plates in DMEM supplemented with 10% FBS in the presence of 1 mM sodium pyruvate, 1 μM dexamethasone and 50 nM insulin. The cells were subsequently maintained in DMEM supplemented with 0.1% BSA and 1 mM sodium pyruvate for 24 hours before treatments. Free fatty acids were dissolved in ethanol as 100 mM stock solutions for further dilution in DMEM supplemented with 0.5% BSA to a final concentration of 400 μM. Hepatocytes were treated for 4 hours before RNA isolation and analysis.
(§1) Total RNA was isolated from liver or cultured hepatocytes using Trizol reagent (Invitrogen™). For real-time PCR analysis, cDNA was synthesized by reverse transcription using random primers and subjected to PCR amplification with genespecific primers in the presence of Cybergreen (Biorad™). Relative abundance of mRNA was calculated after normalization to 18S ribosomal RNA. For hybridization, 20 μg of total RNA was resolved on a formaldehyde gel, transferred to nylon membrane and hybridized with 32P-labeled gene-specific probes. Hybridization to ribosomal protein 36B4 was included as loading control.

LXRα = assay: 4×LXRE-luc reporter in H2.35 hepatoma cells; type: cell-based, mouse; conditions: reporter containing multimerized LXR responsive elements, RNAi cotransfection
Description: FIG. 6A-E illustrate the coactivation of LXRα by PGC-1α and PGC-1β. In particular, FIG. 6A depicts H2.35 hepatoma cells that were transiently transfected with 4×LXRE-luc in combination with plasmids. Transfected cells were treated with either vehicle DMSO (open box) or 10 μM of the LXR agonist T0901317 (filled box) for 24 hours before luciferase assay. FIG. 6B depicts H2.35 hepatoma cells that were transiently transfected with wild-type ABCA1 promoter reporter plasmid-(ABCA1-luc) or a mutant lacking the LXRE (ABCA1 ΔLXRE-luc) in combination with plasmids. Transfected cells were treated with vehicle or T0901317 as described in FIG. 6A. FIG. 6C depicts CHIP analysis on LXR target genes. H2.35 cells were infected with adenoviruses expressing GFP, flag-PGC-1α or flag-PGC-1β. Cells were treated with 10 μM of T0901317 for 3 hours before harvesting. PCR was performed on input or precipitated DNA using primers as indicated FIG. 6D depicts the interaction between LXRα and the N-termini of the PGC-1β proteins. […]
FIGS. 7A-H illustrate the requirement for PGC-1β in SREBP-mediated transcription. […] Luciferase activity was measured 48 hours after transfection. […] Total RNA was isolated from infected cells and analyzed by real-time PCR using primers specific for the genes. […] Relative SREBP1c expression was determined by real-time PCR analysis and normalized to 18S rRNA. […]

SREBP2 and SREBP1a = assay: FAS -700 luc reporter with SREBP2 and SREBP1a and PGC-1β RNAi constructs in hepatoma cells; type: cell-based, mouse; conditions: FAS promoter reporter
Text: (§2) FIGS. 7A-H illustrate the requirement for PGC-1β in SREBP-mediated transcription. In particular, FIG. 7A depicts knockdown of PGC-1β protein levels by RNAi constructs. Cultured 293 cells were transiently transfected with PGC-1β expression plasmid (f-PGC-1β) in the presence of RNAi constructs or a vector control. Transfected cells were harvested for immunoblotting using a monoclonal antibody against the Flag epitope. Both RNAi constructs decrease PGC-1β protein levels compared to the vector control. FIGS. 7 B-E depict hepatoma cells that were transiently transfected with FAS—700 luc (B-C), G6Pase −1200 luc (D) or 4×LXRE-luc (E) in combination with plasmids. For RNAi, either a vector control or RNAi constructs directed toward PGC-1β were included in the transfection experiments. Luciferase activity was measured 48 hours after transfection. FIG. 7F depicts knockdown of PGC-1β protein by adenoviral expression of RNAi. H2.35 hepatoma cells were infected with Ad-GFP or Ad-RNAi for two days and then infected with Ad-PGC-1β. Total lysates were prepared for immunoblotting analysis using antibodies raised against PGC-1β. […] Total RNA was isolated from infected cells and analyzed by real-time PCR using primers specific for the genes. […] Relative SREBP1c expression was determined by real-time PCR analysis and normalized to 18S rRNA. […]

G6Pase promoter = assay: G6Pase -1200 luc reporter with PGC-1α and HNF4α and PGC-1β RNAi constructs in hepatoma cells; type: cell-based, mouse
Text: as §2

hepatic gene expression = assay: High-cholesterol feeding, liver gene expression by real-time PCR; type: in vivo, mouse; conditions: diet containing 2% cholesterol vs 0.07% control
Description: Animals were fed a standard rodent chow and housed in a controlled environment with twelve-hour light and dark cycles. For high-fat feeding, three-month old male C57/B16J mice were switched to a diet containing 58% fat-derived calorie (D12331, Research Diets™) for 24 or 48 hours. For high-cholesterol feeding, two groups of mice were fed a base diet supplemented with either 0.07% or 2% cholesterol for 24 or 48 hours. Liver was dissected and immediately frozen for RNA isolation. The feeding experiments were repeated three times with four mice per group for each dietary treatment.
as §1
To examine whether dietary cholesterol had any impact on the expression of SREBPs and PGC-1β mice were fed a control diet containing 0.07% cholesterol or a similar diet containing 2% cholesterol. […] This induction of the genetic program of hepatic lipogenesis following acute intake of a high saturated fat diet was not previously observed.

Question: Which “expression of PGC-1α” value (PGC-1α) does the source give for `CCCCCCCC/C=C/CCCCCCCC(=O)O` [elaidic acid] here?
Answer: 3.2 fold

Question: Which PGC-1β expression (PGC-1β) does the source give for `CC/C=C\C/C=C\C/C=C\C/C=C\C/C=C\CCCC(=O)O` [EPA] here?
Answer: only slightly induce

Question: What does the source list for “5′-GATATCCTCTGTGATGTTA-3′ (expressed or natural sequence) [SEQ ID NO 60, PGC-1β RNAi construct in pSUPER-retro vector under the H1-RNA promoter]”?
Answer: LXRα/RXRα transcriptional activity (LXRα): do not alter; SREBP transcriptional activity with SREBP2 and SREBP1a (SREBP2 and SREBP1a): very similar reduction; regulation of G6Pase promoter activity by PGC-1α and HNF4α (G6Pase promoter): little or no effect

Question: With `CCCCCCCCCCCCCCCCCC(=O)O` [stearic acid] as the compound, how does the “PGC-1β mRNA” value (PGC-1β) read?
Answer: 2.2 fold

Question: For “5′-GTACGGAACTGCATAAGCA-3′ (expressed or natural sequence; the letters are possibly those of the target site) [SEQ ID NO:61, PGC-1β RNAi construct in pSUPER-retro vector under the H1-RNA promoter]”, which LXRα/RXRα transcriptional activity (LXRα) is on record?
Answer: do not alter

Question: And the “SREBP transcriptional activity with SREBP2 and SREBP1a” value (SREBP2 and SREBP1a)?
Answer: very similar reduction

Question: And the “regulation of G6Pase promoter activity by PGC-1α and HNF4α” value (G6Pase promoter)?
Answer: little or no effect

Question: For `CCCCC/C=C\C/C=C\CCCCCCCC(=O)O` [linoleic acid], which PGC-1β expression (PGC-1β) is on record?
Answer: only slightly induce

Question: With `CCCCC/C=C\C/C=C\C/C=C\C/C=C\CCCC(=O)O` [arachidonic acid] as the compound, how does the PGC-1β expression (PGC-1β) read?
Answer: only slightly induce

Question: How did the “SREBP1c mRNA” value (hepatic gene expression) turn out when `CC(C)CCC[C@@H](C)[C@H]1CC[C@H]2[C@@H]3CC=C4C[C@@H](O)CC[C@]4(C)[C@H]3CC[C@]12C` [cholesterol] was run?
Answer: slightly increased

Question: What about the “expression of PGC-1β” value (hepatic gene expression) of the same compound?
Answer: not altered

Question: What about the “hepatic expression of mRNA encoding SREBP2, along with HMGCoA reductase” value (hepatic gene expression) of the same compound?
Answer: suppresses

Question: And the “mRNA level of FAS, SCD-1 and glucose kinase (GK)” value (hepatic gene expression)?
Answer: remains largely unchanged

Question: How did the “expression of PGC-1α” value (PGC-1α) turn out when `CCCCCC/C=C/CCCCCCCCCC(=O)O` [trans-vaccenic acid] was run?
Answer: 3.2 fold

Question: Which PGC-1β expression (PGC-1β) does the source give for `CCCCCCCC/C=C\CCCCCCCC(=O)O` [oleic acid] here?
Answer: only slightly induce
